These results are taken from patent US9983218B2, “Indole and indoline derivatives and methods of use thereof” (AbbVie Inc., priority 2008, dated 2018).

Series [1] relates to primary postnatal (P0) cortical cells. Nature of the series: Neurite outgrowth assay (Aβ1-42-induced reduction of neurite outgrowth, high content microscopy). The series is classed as cell-based, rat. To be noted: for Emax: Rattus norvegicus, read-out: Maximum Effect (of % 300 nM Dimebolin). As to the method:
In addition to PC12 cells, other cellular model systems may also be used. Rat cortical cells were cultured and prepared for high content microscopy analysis as previously described (Hu, M.; Schurdak, M. E.; et al. High content screen microscopy analysis of Aβ1-42-induced neurite outgrowth reduction in rat primary cortical neurons: Neuroprotective effects of α7 neuronal nicotinic acetylcholine receptor ligands. Brain Res. 2007, 1151, 227-235.). Briefly, cortical cell cultures were plated at density of 5×10^5 cells/mL onto poly-D-lysine coated 96-well plates and maintained in a cell incubator at 37° C. with 5% CO2. Experiments were performed using 6-7 day-old cortical cell cultures by treating with test compounds. In some experiments, the effect of test compounds on reversing Aβ toxicity were also measured (Hu, M.; Schurdak, M. E.; et al. High content screen microscopy analysis of Aβ1-42-induced neurite outgrowth reduction in rat primary cortical neurons: Neuroprotective effects of α7 neuronal nicotinic acetylcholine receptor ligands. Brain Res. 2007, 1151, 227-235.). For assessment of neuroprotective effects, cells were first pretreated with test compounds for about 5 hours. Medium was then replaced with the medium containing freshly prepared about 5 μM Aβ1-42 peptide in the absence or presence of the test compounds for 3 days. The untreated group contained the same percentage of vehicle (DMSO) as in the treatment groups. Cells were fixed with approximately 4% paraformaldehyde containing 0.5% Hoechst 33342 for about 15 minutes, followed by three washes using PBS (pH 7.4) and blocked with 10% donkey serum in PBS for 1 hour at room temperature. The cells were then incubated overnight at about 4° C. with mouse anti-tubulin monoclonal antibody (1:100) for staining neurons and rabbit anti-GFAP (1:1000) for staining glia. In the next day, cells were incubated with FITC-labeled anti-mouse and TRITC-labeled anti-rabbit antibodies (1:1000) for about 1 hour at room temperature. After fixing and staining the cells, nuclei (360/400 nm excitation and 465/300 nm emission filters), neuron (475/350 nm excitation and 535/400 nm emission filters) and glial cell (535 nm excitation and 610 nm emission filters) images were collected using the ImageExpress Micro automatic fluorescent microscopy system (Molecular Devices, Sunnyvale, Calif.) employing a Nikon 10× Plan Fluor objective and Cool Snap HQ CCD camera. The Neurite Outgrowth module in the MetaMorph Imaging software was used to automatically count total cell number, number of neuron cells, and the extent of neurite outgrowth.
In the graph of FIG. 2, 100% response was the response observed for untreated cells. Exposure to Aβ1-42 produced a decrease in neurite outgrowth. Treatment of cells with compounds prior to and concomitantly with Aβ1-42 gave a neuroprotective effect with neurite outgrowth maintained or enhanced relative to untreated cells.

Series [2] concerns SK-N-SH human neuroblastoma cells. Nature of the series: Serum deprivation/JC-1 mitochondrial membrane potential (MMP) assay. The series is classed as cell-based. The settings on record: for Emax: SK-N-SH, read-out: JC-1 max %; for EC50: serum deprivation ~18 hours, JC-1 ratio normalized to peak value for 10 μM dimebolin, single curve fit to mean data of n=2-3, read-out: EC50. In outline:
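Cells were serum-deprived ~18 h in MEM with or without compound (DMSO ≤1%), then stained with JC-1 for 35 min at 37° C. The red/green fluorescence ratio (560/595 vs 485/535 nm) was normalized to the peak response of 10 μM dimebolin. EC50 came from one curve fit to mean data (n=2-3, duplicates).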

The test system of a further series is mice. Nature of the series: Inhibitory avoidance in mouse. The series is classed as in vivo. To be noted: 24-hour recall, significant at 0.11 mg/kg and 1.1 mg/kg, FIG. 4. The protocol: Inhibitory Avoidance in Mouse: The inhibitory avoidance task involves the uses of a two-compartment step through apparatus (Ugo Basile, Collegeville, Pa.) that measures the animal's ability to remember a brief noxious stimulus (foot shock), and is considered a measure of trial learning, and memory consolidation. Briefly, mice were placed in a lighted compartment of the apparatus where the latency to enter into the preferred dark compartment is recorded. […] Retention testing was conducted 24 hours later with the animal again placed in the lighted compartment where its latency to reenter the dark side of the apparatus was measured (no shock). Increasing retention latency was regarded as an index of memory consolidation (Bitner, R. S.; Bunnelle, W. H.; et al. Broad-spectrum efficacy across cognitive domains by α7 nicotinic acetylcholine receptor agonism correlates with activation of ERK1/2 and CREB phosphorylation pathways. J. Neurosci. 2007, 27(39), 10578-10587.).

The test system of a further series is Male Sprague Dawley rats. Nature of the series: Analgesic effect against neuropathic pain (L5/L6 spinal nerve ligation, von Frey filaments). In kind it is in vivo. To be noted: rat. The protocol: Animals were prepared for testing, by use of a surgical procedure that induces neuropathic pain in one paw. Male Sprague Dawley rats were purchased from Charles River (Portage, Mich.). Prior to surgery, animals were housed in groups and maintained in a temperature-regulated environment. Following nerve ligation surgery, animals were housed in groups, and had access to food and water ad libitum.
The L5 and L6 spinal nerves of anesthetized rats were tightly ligated in a manner described previously (see Kim and Chung, Pain (1992) vol. 50 pp. 355-363). An incision was made on the dorsal portion of the hip and the muscle was blunt-dissected to reveal the spinal processes. The L6 transverse process was removed, and the left side L5 and L6 spinal nerves were tightly ligated with 5.0 braided silk suture. The wound was cleaned, the membrane sewn with 4.0 dissolvable Vicryl suture and the skin closed with wound clips. The paw affected by the surgical procedure (the left paw) develops an allodynic response, a hypersensitivity to mechanical and other stimuli; neuropathic pain is assessed as an increased sensitivity in the surgically affected (left) allodynic paw compared to the control paw on the right side, and measured by comparing the response of the (left side) allodynic paw to the response of the unaffected right side control paw.
For the assessment of neuropathic pain, mechanical allodynia in the affected paw of animals that had undergone spinal nerve ligation was evaluated using testing with von Frey filaments. As described previously by S. R. Chaplan, et al (“Quantitative assessment of tactile allodynia in the rat paw” J. Neurosci. Meth. (1994) vol. 53 pp. 55-63), two weeks following surgery rats were acclimated to a testing box constructed of plexiglass with a wire mesh floor which allowed access to the plantar surface of the animal's hindpaws. […] The efficacy of the compound in reducing neuropathic pain at different doses was determined by comparing response in the surgery-affected paw versus the response in the control paw. […]

The subject of series [3] is primary rat cortical neurons. To be noted: comparable to that evoked by BDNF; cited from earlier work.
In series [4] the test system is Patients with mild-to-moderate Alzheimer's disease. To be noted: cited from earlier work.
Where [5] appears, read: maximum response relative to 300 nM dimebolin, at the concentration given.
Setting [6] is: Homo sapiens, percent maximal intensity in JC-1 ratio normalized to 10 μM dimebolin.

Entries after “also recorded” stand apart in the source; their conditions may differ. Like-named read-outs stand apart in the source and are kept apart here.

For orientation: EC50 means the midpoint of the concentration-response curve. For the compound `Cc1ccc2c(c1)c1c(n2CCc2ccc(C)nc2)C[C@@H]2CC[C@H]1N2` (single isomer, unassigned) [Example 5], the figures for the Emax in series [1] (setting [5]) and in series [2] (setting [6]) were 123% and 209%, respectively. Further, in series [1] (pretreatment about 5 hours, then about 5 μM Aβ1-42 with test compound for 3 days, FIG. 2), the “Aβ1-42-induced reduction of neurite outgrowth” value was “significant attenuation; also recorded: neurite outgrowth levels similar to or enhanced relative to untreated control cells”. In addition, in series [2] (Homo sapiens, SK-N-SH cells), the EC50 was 13 µM. For the same compound, the “maintenance of mitochondrial function (JC-1 ratio) under cellular stress” value in series [2] (SK-N-SH cells, relative to 10 μM dimebolin (100% response), FIG. 3) is “maintained mitochondrial function in a dose dependent manner; also recorded: concentration-dependent enhancement of mitochondrial function maintenance”. In the series with mice, the “latency to reenter the dark side (punishment side)” value is listed as “significantly increased; also recorded: concentration-dependent improvement”.

As to `Cc1ccc2c(c1)c1c(n2CCc2ccc(C)nc2)C2CCN(CC2)C1` [Example 2, 9-methyl-6-[2-(6-methylpyridin-3-yl)ethyl]-3,4,5,6-tetrahydro-1H-2,5-ethanoazepino[4,3-b]indole], in series [1] (setting [5]), the Emax stood at 117%. In addition, in the series with Male Sprague Dawley rats (10 mg/kg intraperitoneal injection, 30 minutes before testing, **p<0.01, ***p<0.001 vs. vehicle, FIG. 6), the “reduction in mechanical allodynia” value is 58%. Also, the adverse effects entry in the series with Male Sprague Dawley rats (i.p. 1, 3, and 10 mg/kg) was “No complicating adverse effects were observed”. In the series with Male Sprague Dawley rats (intraperitoneally 30 minutes before testing, maximum effect 15 g), the “withdrawal threshold for allodynic limb (pressure applied to elicit a pain response)” value was “concentration-dependent improvement”.

Consider `O=c1cccnn1-c1ccc(Cn2c3c(c4cc(F)ccc42)CN2CCC3CC2)cn1` [Example 248, 2-{5-[(9-fluoro-1,3,4,5-tetrahydro-6H-2,5-ethanoazepino[4,3-b]indol-6-yl)methyl]pyridin-2-yl}pyridazin-3(2H)-one], for which the Emax is 109% in series [1] (setting [5]) and 110% in series [2] (setting [6]). Besides, the concentration for a half-maximal effect (EC50) in series [2] (Homo sapiens, SK-N-SH cells) was 5.24 µM.

For `O=c1ccnc2ccc(-n3c4c(c5cc(F)ccc53)CN3CCC4CC3)cn12` [Example 261, 7-(9-fluoro-1,3,4,5-tetrahydro-6H-2,5-ethanoazepino[4,3-b]indol-6-yl)-4H-pyrido[1,2-a]pyrimidin-4-one], the Emax in series [1] (setting [5]) is 104%; in series [2] (setting [6]), 160%. Besides, the EC50 in series [2] (Homo sapiens, SK-N-SH cells) came to 5.72 µM.

With `O=c1cccnn1-c1ccc(-n2c3c(c4cc(F)ccc42)CN2CCC3CC2)nc1` [Example 262, 2-[6-(9-fluoro-1,3,4,5-tetrahydro-6H-2,5-ethanoazepino[4,3-b]indol-6-yl)pyridin-3-yl]pyridazin-3(2H)-one], the Emax in series [1] (setting [5]) turned out to be 99%; in series [2] (setting [6]), 182%. The EC50 in series [2] (Homo sapiens, SK-N-SH cells) turned out to be 8.71 µM.

Regarding `Fc1ccc2c(c1)c1c(n2-c2cccnc2)C2CCN(CC2)C1` [Example 264, 9-fluoro-6-(pyridin-3-yl)-3,4,5,6-tetrahydro-1H-2,5-ethanoazepino[4,3-b]indole], the values for the Emax in series [1] (setting [5]) and in series [2] (setting [6]) were 110% and 107%, respectively. In addition, the EC50 in series [2] (Homo sapiens, SK-N-SH cells) worked out at 7.8 µM.

Turning to `O=c1cnc2ccc(-n3c4c(c5ccccc53)CN3CCC4CC3)cc2[nH]1` [Example 274, 7-(1,3,4,5-tetrahydro-6H-2,5-ethanoazepino[4,3-b]indol-6-yl)quinoxalin-2(1H)-one], the Emax in series [1] (setting [5]) stood at 111%; in series [2] (setting [6]), 235%. For the same compound, the concentration for a half-maximal effect (EC50) in series [2] (Homo sapiens, SK-N-SH cells) is 2.27 µM.

As for `O=c1ccnc2ccc(-n3c4c(c5ccccc53)CN3CCC4CC3)cn12` [Example 277, 7-(1,3,4,5-tetrahydro-6H-2,5-ethanoazepino[4,3-b]indol-6-yl)-4H-pyrido[1,2-a]pyrimidin-4-one], the Emax in series [1] (setting [5]) was 91%; in series [2] (setting [6]), 190%. The EC50 in series [2] (Homo sapiens, SK-N-SH cells) is 2.4 µM.

Take `c1cnc2ccc(-n3c4c(c5ccccc53)[C@@H]3CC[C@H](C4)N3)cc2c1` [Example 282, (7R,10S)-5-(quinolin-6-yl)-5,6,7,8,9,1-hexahydro-7,10-epiminocyclohepta[b]indole]: the “Maximum Effect (of % 300 nM Dimebolin)” value in series [1] (setting [5]) is recorded as 115%. For the same compound, in series [1] (test compound concentration giving the maximum response), the “Concentration (nM) at which the maximum effect was noted” value is 30 nM. The EC50 in series [2] (SK-N-SH cells) came to 3.21 µM. The JC-1 max % in series [2] (percent maximal intensity in JC-1 ratio normalized to 10 μM dimebolin) amounted to 228%.

Regarding `Cc1ccc2c(c1)c1c(n2CCc2ccc(C)nc2)CCN(C)C1` [dimebolin, 2,3,4,5-tetrahydro-2,8-dimethyl-5-[2-(6-methyl-3-pyridinyl)ethyl]-1H-pyrido[4,3-b]indole], the neurite outgrowth entry in series [3] was “increase neurite outgrowth”. Moreover, in series [4] (20 mg three times a day (60 mg/day)), the “clinical course of disease (improvement over baseline for ADAS-Cog)” value was “significant improvement”. Also, the “most frequent adverse event” value in series [4] (clinical studies of dimebolin) is “dry mouth”.
